Peptide text beside a SMILES is read from it.
Columns and labels:
Type in all cases: biochemical
HDAC8 = biological target: T1, HDAC8 (Homo sapiens, UniProt Q9BY41); experiment: HDAC8 inhibition, full IC50 measurement (Reaction Biology; fluorogenic p53 peptide RHKK(Ac)AMC); settings: t1/t2 replicates
T1 construct: purchased Reaction Biology Corporation (assay run by the CRO)
T1 sequence (Q9BY41 1-377): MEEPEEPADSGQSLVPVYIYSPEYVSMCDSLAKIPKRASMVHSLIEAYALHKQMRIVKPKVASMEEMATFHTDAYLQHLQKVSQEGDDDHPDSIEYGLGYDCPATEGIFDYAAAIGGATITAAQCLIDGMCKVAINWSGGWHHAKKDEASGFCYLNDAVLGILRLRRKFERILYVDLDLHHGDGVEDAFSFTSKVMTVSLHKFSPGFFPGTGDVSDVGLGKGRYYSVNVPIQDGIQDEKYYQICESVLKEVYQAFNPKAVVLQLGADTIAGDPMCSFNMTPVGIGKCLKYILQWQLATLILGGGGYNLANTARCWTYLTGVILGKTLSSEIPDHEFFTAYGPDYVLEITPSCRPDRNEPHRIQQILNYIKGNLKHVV
How it was run: (§1)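 Test peptides were dispensed acoustically with enzyme in 50 mM Tris-HCl pH 8.0, 137 mM NaCl, 2.7 mM KCl, 1 mM MgCl2, 1 mg/ml BSA and 1% DMSO. After adding 50 μM RHKK(Ac)AMC, reactions ran 1 h at 30 °C, then developer was added.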

HDAC2 [1] = biological target: T2, HDAC2 (Homo sapiens, UniProt Q92769); experiment: Initial HDAC2 IC50 estimate (BPS Biosciences HDAC fluorogenic assay kit); settings: Supplementary Dataset 2; read-out: HDAC2 activity (initial activity)
T2 construct: purchased Reaction Biology Corporation (assay run by the CRO)
T2 sequence (Q92769 whole entry): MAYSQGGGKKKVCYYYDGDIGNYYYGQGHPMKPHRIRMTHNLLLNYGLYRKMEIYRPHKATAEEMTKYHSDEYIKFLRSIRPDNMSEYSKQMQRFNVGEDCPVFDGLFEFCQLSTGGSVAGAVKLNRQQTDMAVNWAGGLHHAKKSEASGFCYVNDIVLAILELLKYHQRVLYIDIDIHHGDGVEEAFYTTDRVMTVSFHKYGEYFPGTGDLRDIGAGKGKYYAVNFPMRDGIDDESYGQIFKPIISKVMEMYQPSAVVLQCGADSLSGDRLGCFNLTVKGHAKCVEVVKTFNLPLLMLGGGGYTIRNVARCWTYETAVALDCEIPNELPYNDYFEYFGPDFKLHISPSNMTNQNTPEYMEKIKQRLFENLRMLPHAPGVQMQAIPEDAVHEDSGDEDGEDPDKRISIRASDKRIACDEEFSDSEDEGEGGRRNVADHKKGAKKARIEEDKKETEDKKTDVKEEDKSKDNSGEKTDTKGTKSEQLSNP
How it was run: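 Inhibition measured by kit-based fluorogenic HDAC activity assays, with each point in duplicate or triplicate. Values come from a full 1 µM–100 pM series (1:10 steps) or are range estimates from just 20 nM and 200 nM.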

HDAC2 [2] = biological target: T2, HDAC2; experiment: HDAC2 inhibition, full IC50 measurement (Reaction Biology; fluorogenic p53 peptide RHKK(Ac)AMC)
How it was run: as §1

HDAC1 = biological target: T3, HDAC1 (Homo sapiens, UniProt Q13547); experiment: HDAC1 inhibition, full IC50 measurement (Reaction Biology; fluorogenic p53 peptide RHKK(Ac)AMC); settings: t1/t2 replicates
T3 construct: purchased Reaction Biology Corporation (assay run by the CRO)
T3 sequence (Q13547 whole entry): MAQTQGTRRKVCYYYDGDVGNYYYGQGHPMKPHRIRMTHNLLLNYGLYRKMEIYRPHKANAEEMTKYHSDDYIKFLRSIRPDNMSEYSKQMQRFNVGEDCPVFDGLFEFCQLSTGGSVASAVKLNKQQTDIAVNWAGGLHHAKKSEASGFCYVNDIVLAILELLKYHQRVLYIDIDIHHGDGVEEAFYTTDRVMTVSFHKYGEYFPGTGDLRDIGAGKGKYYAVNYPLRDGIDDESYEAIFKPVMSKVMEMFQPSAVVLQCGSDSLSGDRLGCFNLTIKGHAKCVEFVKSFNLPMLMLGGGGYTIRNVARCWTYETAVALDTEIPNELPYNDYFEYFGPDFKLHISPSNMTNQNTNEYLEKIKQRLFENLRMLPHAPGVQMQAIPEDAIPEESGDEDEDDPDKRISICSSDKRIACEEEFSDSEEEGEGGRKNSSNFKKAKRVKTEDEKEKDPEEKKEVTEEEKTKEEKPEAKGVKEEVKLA
How it was run: as §1

[3] = peptide conc. 1.00E-05 M, listed as des3.1.0_t1
[4] = peptide conc. 1.00E-05 M, listed as des3.1.0_t2
[5] = peptide conc. 1.11E-06 M, listed as des3.1.0_t1
[6] = peptide conc. 1.11E-06 M, listed as des3.1.0_t2
[7] = peptide conc. 1.23E-07 M, listed as des3.1.0_t1
[8] = peptide conc. 1.23E-07 M, listed as des3.1.0_t2
[9] = peptide conc. 1.37E-08 M, listed as des3.1.0_t1
[10] = peptide conc. 1.37E-08 M, listed as des3.1.0_t2
[11] = peptide conc. 1.52E-09 M, listed as des3.1.0_t1
[12] = peptide conc. 1.52E-09 M, listed as des3.1.0_t2
[13] = peptide conc. 3.33E-06 M, listed as des3.1.0_t1
[14] = peptide conc. 3.33E-06 M, listed as des3.1.0_t2
[15] = peptide conc. 3.70E-07 M, listed as des3.1.0_t1
[16] = peptide conc. 3.70E-07 M, listed as des3.1.0_t2
[17] = peptide conc. 4.12E-08 M, listed as des3.1.0_t1
[18] = peptide conc. 4.12E-08 M, listed as des3.1.0_t2
[19] = peptide conc. 4.57E-09 M, listed as des3.1.0_t1
[20] = peptide conc. 4.57E-09 M, listed as des3.1.0_t2
[21] = peptide conc. 5.08E-10 M, listed as des3.1.0_t1
[22] = peptide conc. 5.08E-10 M, listed as des3.1.0_t2

N=C(N)NCCC[C@H]1NC(=O)[C@@H]2CCCN2C(=O)[C@H](CO)NC(=O)[C@@H](Cc2c[nH]cn2)NC(=O)[C@H](CCCCCS)NC(=O)[C@H](CCCCN)NC(=O)[C@H](Cc2ccc(O)cc2)NC(=O)[C@H]2CCCN2C(=O)[C@@H](CCC(N)=O)NC1=O [des3.1.0, SHA-dHis-Ser-Pro-dArg-dGln-dPro-Tyr-Lys] (HELM PEPTIDE1{K.[O=C([C@H](CCCCCS)N[*:1])[*:2]].[dH].S.P.[dR].[dQ].[dP].Y}$PEPTIDE1,PEPTIDE1,1:R1-9:R2$$$V2.0)
HDAC8 activity raw data (signal) (HDAC8; [3]): 177071
HDAC8 activity raw data (signal) (HDAC8; [4]): 217357
HDAC8 activity raw data (signal) (HDAC8; [5]): 702584
HDAC8 activity raw data (signal) (HDAC8; [6]): 678372
HDAC8 activity raw data (signal) (HDAC8; [7]): 829409
HDAC8 activity raw data (signal) (HDAC8; [8]): 942877
HDAC8 activity raw data (signal) (HDAC8; [9]): 914161
HDAC8 activity raw data (signal) (HDAC8; [10]): 1065224
HDAC8 activity raw data (signal) (HDAC8; [11]): 932207
HDAC8 activity raw data (signal) (HDAC8; [12]): 1002240
HDAC8 activity raw data (signal) (HDAC8; [13]): 396779
HDAC8 activity raw data (signal) (HDAC8; [14]): 364112
HDAC8 activity raw data (signal) (HDAC8; [15]): 821171
HDAC8 activity raw data (signal) (HDAC8; [16]): 831364
HDAC8 activity raw data (signal) (HDAC8; [17]): 888545
HDAC8 activity raw data (signal) (HDAC8; [18]): 997244
HDAC8 activity raw data (signal) (HDAC8; [19]): 750196
HDAC8 activity raw data (signal) (HDAC8; [20]): 946901
HDAC8 activity raw data (signal) (HDAC8; [21]): 807432
HDAC8 activity raw data (signal) (HDAC8; [22]): 990498
IC50 (HDAC2 [1]): 1400 nM
HDAC2 activity raw data (signal) (HDAC2 [2]; Conc. 1.00E-05 M, t1): 59408
HDAC2 activity raw data (signal) (HDAC2 [2]; Conc. 1.00E-05 M, t2): 72667
HDAC2 activity raw data (signal) (HDAC2 [2]; Conc. 1.11E-06 M, t1): 433904
HDAC2 activity raw data (signal) (HDAC2 [2]; Conc. 1.11E-06 M, t2): 343376
HDAC2 activity raw data (signal) (HDAC2 [2]; Conc. 1.23E-07 M, t1): 657996
HDAC2 activity raw data (signal) (HDAC2 [2]; Conc. 1.23E-07 M, t2): 873444
HDAC2 activity raw data (signal) (HDAC2 [2]; Conc. 1.37E-08 M, t1): 729280
HDAC2 activity raw data (signal) (HDAC2 [2]; Conc. 1.37E-08 M, t2): 826208
HDAC2 activity raw data (signal) (HDAC2 [2]; Conc. 1.52E-09 M, t1): 589537
HDAC2 activity raw data (signal) (HDAC2 [2]; Conc. 1.52E-09 M, t2): 821627
HDAC2 activity raw data (signal) (HDAC2 [2]; Conc. 3.33E-06 M, t1): 217345
HDAC2 activity raw data (signal) (HDAC2 [2]; Conc. 3.33E-06 M, t2): 176595
HDAC2 activity raw data (signal) (HDAC2 [2]; Conc. 3.70E-07 M, t1): 565181
HDAC2 activity raw data (signal) (HDAC2 [2]; Conc. 3.70E-07 M, t2): 599514
HDAC2 activity raw data (signal) (HDAC2 [2]; Conc. 4.12E-08 M, t1): 715436
HDAC2 activity raw data (signal) (HDAC2 [2]; Conc. 4.12E-08 M, t2): 918076
HDAC2 activity raw data (signal) (HDAC2 [2]; Conc. 4.57E-09 M, t1): 697486
HDAC2 activity raw data (signal) (HDAC2 [2]; Conc. 4.57E-09 M, t2): 737052
HDAC2 activity raw data (signal) (HDAC2 [2]; Conc. 5.08E-10 M, t1): 616136
HDAC2 activity raw data (signal) (HDAC2 [2]; Conc. 5.08E-10 M, t2): 674996
HDAC1 activity raw data (signal) (HDAC1; [3]): 22305
HDAC1 activity raw data (signal) (HDAC1; [4]): 40732
HDAC1 activity raw data (signal) (HDAC1; [5]): 248828
HDAC1 activity raw data (signal) (HDAC1; [6]): 188355
HDAC1 activity raw data (signal) (HDAC1; [7]): 589648
HDAC1 activity raw data (signal) (HDAC1; [8]): 563314
HDAC1 activity raw data (signal) (HDAC1; [9]): 723592
HDAC1 activity raw data (signal) (HDAC1; [10]): 777320
HDAC1 activity raw data (signal) (HDAC1; [11]): 783325
HDAC1 activity raw data (signal) (HDAC1; [12]): 856547
HDAC1 activity raw data (signal) (HDAC1; [13]): 76346
HDAC1 activity raw data (signal) (HDAC1; [14]): 86885
HDAC1 activity raw data (signal) (HDAC1; [15]): 352482
HDAC1 activity raw data (signal) (HDAC1; [16]): 387684
HDAC1 activity raw data (signal) (HDAC1; [17]): 725312
HDAC1 activity raw data (signal) (HDAC1; [18]): 693516
HDAC1 activity raw data (signal) (HDAC1; [19]): 787632
HDAC1 activity raw data (signal) (HDAC1; [20]): 874002
HDAC1 activity raw data (signal) (HDAC1; [21]): 778120
HDAC1 activity raw data (signal) (HDAC1; [22]): 831348
